Results published in patent US9975907B2, “Pyrimidinones as PI3K inhibitors” (Incyte Corporation, priority 2009, dated 2018).
Where a name gives a salt, the structure may show the parent alone.

Legend:
[1] = molecular target: T1, PI3Kδ (p110δ/p85α) (Homo sapiens (Human), UniProt O00329); assay: PI3Kδ Scintillation Proximity Assay (Assay A3); format: biochemical; settings: column b, Assay A3 (SPA), 20 μM ATP
Summary of the method: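 Radiometric SPA: 33P-labelled […] bound to WGA beads after EDTA/ATP quench, counted by scintillation, fitted against log inhibitor for IC50. Reaction: 4 nM PI3Kδ (p110δ/p85α), 20 μM ATP, 20 μM PIP2, pH 6.7 MOPS buffer with MgCl2, DTT, CHAPS, 0.5% DMSO, room temperature, 210 min.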

[2] = molecular target: PI3Kγ (Homo sapiens (Human), UniProt P48736); assay: PI3K Enzyme Assay A2 ([γ-33P]ATP filter plate), PI3Kγ; format: biochemical; settings: Assay A2, 1000 μM ATP
Sequence of PI3Kγ (P48736 whole entry, species assumed, canonical isoform): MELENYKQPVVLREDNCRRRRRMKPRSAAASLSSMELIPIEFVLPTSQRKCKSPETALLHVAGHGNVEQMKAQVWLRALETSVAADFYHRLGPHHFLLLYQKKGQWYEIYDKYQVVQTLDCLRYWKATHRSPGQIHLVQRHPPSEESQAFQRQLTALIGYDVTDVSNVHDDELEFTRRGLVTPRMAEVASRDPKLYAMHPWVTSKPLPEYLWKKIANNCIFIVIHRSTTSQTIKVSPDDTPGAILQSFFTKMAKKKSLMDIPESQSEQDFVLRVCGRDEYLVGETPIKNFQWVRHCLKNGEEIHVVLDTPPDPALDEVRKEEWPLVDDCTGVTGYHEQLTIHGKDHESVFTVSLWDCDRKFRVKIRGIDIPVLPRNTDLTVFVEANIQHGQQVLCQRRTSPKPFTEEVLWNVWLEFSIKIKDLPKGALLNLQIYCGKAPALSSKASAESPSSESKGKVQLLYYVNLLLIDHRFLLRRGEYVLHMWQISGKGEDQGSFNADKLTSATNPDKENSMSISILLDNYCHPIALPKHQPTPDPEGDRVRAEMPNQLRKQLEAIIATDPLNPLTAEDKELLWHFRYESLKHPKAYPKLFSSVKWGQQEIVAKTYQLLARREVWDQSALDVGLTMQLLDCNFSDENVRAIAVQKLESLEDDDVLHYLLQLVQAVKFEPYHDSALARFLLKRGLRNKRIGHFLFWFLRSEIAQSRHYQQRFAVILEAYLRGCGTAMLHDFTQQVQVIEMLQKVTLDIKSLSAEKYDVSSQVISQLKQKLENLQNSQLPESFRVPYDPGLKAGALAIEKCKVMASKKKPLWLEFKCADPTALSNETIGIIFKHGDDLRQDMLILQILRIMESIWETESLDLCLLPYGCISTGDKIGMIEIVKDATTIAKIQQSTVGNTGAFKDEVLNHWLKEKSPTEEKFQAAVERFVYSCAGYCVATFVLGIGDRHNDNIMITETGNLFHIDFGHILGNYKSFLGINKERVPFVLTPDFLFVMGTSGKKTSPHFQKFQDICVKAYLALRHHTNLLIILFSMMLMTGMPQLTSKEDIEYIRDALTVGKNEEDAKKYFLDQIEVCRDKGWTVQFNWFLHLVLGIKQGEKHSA
Experimental: Materials: Lipid kinase substrate, phosphoinositol-4,5-bisphosphate (PIP2), was purchased from Echelon Biosciences (Salt Lake City, Utah). PI3K isoforms α, β, δ and γ were purchased from Millipore (Bedford, Mass.). ATP, MgCh, DTT, EDTA, MOPS and CHAPS were purchased from Sigma-Aldrich (St. Louis, Mo.).
(§1) The kinase reaction was conducted in clear-bottom 96-well plate from Thermo Fisher Scientific in a final volume of 24 μL. Inhibitors were first diluted serially in DMSO and added to the plate wells before the addition of other reaction components. The final concentration of DMSO in the assay was 0.5%. The PI3K assays were carried out at room temperature in 20 mM MOPS, pH 6.7, 10 mM MgCl2, 5 mM DTT and CHAPS 0.03%. The reaction mixture was prepared containing 50 μM PIP2, kinase and varying concentration of inhibitors. Reactions were initiated by the addition of ATP containing 2.2 μCi [γ-^33P]ATP to a final concentration of 1000 μM. The final concentration of PI3K isoforms α, β, δ and γ in the assay were 1.3, 9.4, 2.9 and 10.8 nM respectively. Reactions were incubated for 180 min and terminated by the addition of 100 μL of 1 M potassium phosphate pH 8.0, 30 mM EDTA quench buffer. A 100 μL aliquot of the reaction solution was then transferred to 96-well Millipore MultiScreen IP 0.45 μm PVDF filter plate (The filter plate was prewetted with 200 μL 100% ethanol, distilled water, and 1 M potassium phosphate pH 8.0, respectively). The filter plate was aspirated on a Millipore Manifold under vacuum and washed with 18×200 μL wash buffer containing 1 M potassium phosphate pH 8.0 and 1 mM ATP. After drying by aspiration and blotting, the plate was air dried in an incubator at 37° C. overnight. Packard TopCount adapter (Millipore) was then attached to the plate followed with addition of 120 μL Microscint 20 scintillation cocktail (Perkin Elmer) in each well. After the plate sealing, the radioactivity of the product was determined by scintillation counting on Topcount (Perkin-Elmer). IC50 determination was performed by fitting the curve of percent control activity versus the log of the inhibitor concentration using the GraphPad Prism 3.0 software. […] See Table 1 for data related to compounds of the invention.

[3] = tested on: Pfeiffer cell line (diffuse large B cell lymphoma); assay: Pfeiffer Cell Proliferation Assay; format: cell-based; settings: 3-4 days, [3H]-thymidine incorporation
Experimental: Pfeiffer cell line (diffuse large B cell lymphoma) was purchased from ATCC (Manassas, Va.) and maintained in the culture medium recommended (RPMI and 10% FBS). To measure the anti-proliferation activity of the PI3Kδ submittals, the Pfeiffer cells were plated with the culture medium (2×10^3 cells/well/per 200 μl) into 96-well ultra-low binding plates (Corning, Corning, N.Y.), in the presence or absence of a concentration range of test compounds. After 3-4 days, [^3H]-thymidine (1 μCi/well) (PerkinElmer, Boston, Mass.) in PBS was then added to the cell culture for an additional 12 hrs before the incorporated radioactivity was separated by filtration with water through GF/B filters (Packard Bioscience, Meriden, Conn.) and measured by liquid scintillation counting with a TopCount (Packard Bioscience). See Table 3 for data related to compounds of the invention.

[4] = molecular target: PI3Kβ (Homo sapiens (Human), UniProt P42338); assay: PI3K Enzyme Assay A2 ([γ-33P]ATP filter plate), PI3Kβ; format: biochemical; settings: Assay A2, 1000 μM ATP
Sequence of PI3Kβ (P42338 whole entry, species assumed, canonical isoform): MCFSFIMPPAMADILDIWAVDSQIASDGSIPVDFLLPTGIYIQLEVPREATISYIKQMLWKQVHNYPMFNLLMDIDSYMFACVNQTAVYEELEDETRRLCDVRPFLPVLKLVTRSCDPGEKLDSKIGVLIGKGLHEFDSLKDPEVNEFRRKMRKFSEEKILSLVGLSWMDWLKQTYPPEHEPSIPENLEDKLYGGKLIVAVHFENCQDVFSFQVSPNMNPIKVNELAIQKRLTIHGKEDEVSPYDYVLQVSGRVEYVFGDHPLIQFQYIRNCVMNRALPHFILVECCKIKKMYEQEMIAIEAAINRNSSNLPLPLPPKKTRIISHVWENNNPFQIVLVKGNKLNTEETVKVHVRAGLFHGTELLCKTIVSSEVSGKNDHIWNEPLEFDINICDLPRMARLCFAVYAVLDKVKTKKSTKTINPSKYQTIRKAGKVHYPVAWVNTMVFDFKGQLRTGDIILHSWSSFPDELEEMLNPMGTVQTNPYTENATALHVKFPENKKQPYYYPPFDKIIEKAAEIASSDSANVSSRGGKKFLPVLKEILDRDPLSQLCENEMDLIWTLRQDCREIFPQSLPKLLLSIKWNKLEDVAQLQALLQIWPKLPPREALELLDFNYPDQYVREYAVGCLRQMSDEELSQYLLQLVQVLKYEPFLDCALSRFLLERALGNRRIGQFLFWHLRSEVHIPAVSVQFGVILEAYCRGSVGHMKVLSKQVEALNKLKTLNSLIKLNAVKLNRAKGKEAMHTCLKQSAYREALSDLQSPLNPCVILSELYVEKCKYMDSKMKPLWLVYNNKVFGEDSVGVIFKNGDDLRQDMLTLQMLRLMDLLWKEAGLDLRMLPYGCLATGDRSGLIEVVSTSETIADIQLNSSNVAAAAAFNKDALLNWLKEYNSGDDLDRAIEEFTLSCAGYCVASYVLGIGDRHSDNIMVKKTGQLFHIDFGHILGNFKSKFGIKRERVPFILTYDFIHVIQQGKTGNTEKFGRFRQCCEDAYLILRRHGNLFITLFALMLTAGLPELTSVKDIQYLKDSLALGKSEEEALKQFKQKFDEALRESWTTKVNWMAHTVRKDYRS
Sequence of PI3Kβ (P27986 whole entry partner, species assumed, canonical isoform): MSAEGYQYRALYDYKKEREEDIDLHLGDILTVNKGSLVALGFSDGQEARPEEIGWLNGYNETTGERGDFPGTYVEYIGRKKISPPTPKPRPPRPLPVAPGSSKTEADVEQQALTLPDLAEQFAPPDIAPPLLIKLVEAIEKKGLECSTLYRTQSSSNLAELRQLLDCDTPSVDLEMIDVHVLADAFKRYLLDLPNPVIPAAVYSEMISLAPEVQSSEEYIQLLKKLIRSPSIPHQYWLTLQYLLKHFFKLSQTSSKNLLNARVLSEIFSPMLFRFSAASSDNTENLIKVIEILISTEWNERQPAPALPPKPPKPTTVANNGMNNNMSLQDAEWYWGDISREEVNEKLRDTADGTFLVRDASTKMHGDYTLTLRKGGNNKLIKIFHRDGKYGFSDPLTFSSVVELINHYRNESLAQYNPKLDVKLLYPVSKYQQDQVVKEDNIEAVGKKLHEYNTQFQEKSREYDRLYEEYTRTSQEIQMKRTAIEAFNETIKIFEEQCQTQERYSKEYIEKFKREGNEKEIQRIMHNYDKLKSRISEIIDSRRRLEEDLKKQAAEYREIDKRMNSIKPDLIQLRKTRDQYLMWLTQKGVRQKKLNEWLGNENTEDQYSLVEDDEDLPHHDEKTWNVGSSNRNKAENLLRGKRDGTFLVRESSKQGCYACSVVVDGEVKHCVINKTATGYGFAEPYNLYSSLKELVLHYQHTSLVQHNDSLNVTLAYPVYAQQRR
Experimental: as §1, with “Materials: Lipid kinase substrate, phosphoinositol-4,5-bisphosphate (PIP2), was purchased from Echelon Biosciences (Salt Lake City, Utah). PI3K isoforms α, β, δ and γ were purchased from Millipore (Bedford, Mass.). ATP, MgCh, DTT, EDTA, MOPS and CHAPS were purchased from Sigma-Aldrich (St. Louis, Mo.). The kinase” for “The kinase”, “1000 μM. […] Reactions were” for “1000 μM. The final concentration of PI3K isoforms α, β, δ and γ in the assay were 1.3, 9.4, 2.9 and 10.8 nM respectively. Reactions were”

[5] = molecular target: T1, PI3Kδ (p110δ/p85α); assay: AlphaScreen Assay for PI3Kδ (Assay A1); format: biochemical; settings: column a, 20 μM ATP
Excerpt: PI3-Kinase luminescent assay kit including lipid kinase substrate, D-myo-phosphatidylinositol 4,5-bisphosphate (PtdIns(4,5)P2)D (+)-sn-1,2-di-O-octanoylglyceryl, 3-O-phospho linked (PIP2), biotinylated I(1,3,4,5)P4, PI(3,4,5)P3 Detector Protein, was purchased from Echelon Biosciences (Salt Lake City, Utah). AlphaScreen™ GST Detection Kit including donor and acceptor beads was purchased from PerkinElmer Life Sciences (Waltham, Mass.). PI3Kδ (p110δ/p85α) was purchased from Millipore (Bedford, Mass.). ATP, MgCb, DTT, EDTA, HEPES and CHAPS were purchased from Sigma-Aldrich (St. Louis, Mo.).
AlphaScreen™ Assay for PI3Kδ
The kinase reaction was conducted in 384-well REMP plate from Thermo Fisher Scientific in a final volume of 40 μL. Inhibitors were first diluted serially in DMSO and added to the plate wells before the addition of other reaction components. The final concentration of DMSO in the assay was 2%. The PI3K assays were carried out at room temperature in 50 mM HEPES, pH 7.4, 5 mM MgCl2, 50 mM NaCl, 5 mM DTT and CHAPS 0.04%. Reactions were initiated by the addition of ATP, the final reaction mixture consisted of 20 μM PIP2, 20 μM ATP, 1.2 nM PI3Kδ were incubated for 20 min. 10 μL of reaction mixture was then transferred to 5 μL 50 nM biotinylated I(1,3,4,5)P4 in quench buffer: 50 mM HEPES pH 7.4, 150 mM NaCl, 10 mM EDTA, 5 mM DTT, 0.1% Tween-20, followed with the addition of 10 μL AlphaScreen™ donor and acceptor beads suspended in quench buffer containing 25 nM PI(3,4,5)P3 detector protein. The final concentration of both donor and acceptor beads is […]. After plate sealing, the plate was incubated in a dark location at room temperature for 2 hours. The activity of the product was determined on Fusion-alpha microplate reader (Perkin-Elmer). IC50 determination was performed by fitting the curve of percent control activity versus the log of the inhibitor concentration using the GraphPad Prism 3.0 software.

[6] = tested on: purified B cells from human PBMC; assay: B Cell Proliferation Assay; format: cell-based; settings: anti-human IgM stimulated, three days, [3H]-thymidine incorporation
Experimental: To acquire B cells, human PBMC were isolated from the peripheral blood of normal, drug free donors by standard density gradient centrifugation on Ficoll-Hypague (GE Healthcare, Piscataway, N.J.) and incubated with anti-CD19 microbeads (Miltenyi Biotech, Auburn, Calif.). The B cells were then purified by positive immunosorting using an autoMacs (Miltenyi Biotech) according to the manufacturer's instruction.
The purified B cells (2×10^5/well/200 μL) were cultured in 96-well ultra-low binding plates (Corning, Corning, N.Y.) in RPMI1640, 10% FBS and goat F(ab′)2 anti-human IgM (10 μg/ml) (Invitrogen, Carlsbad, Calif.), in the presence of different amount of test compounds, for three days. [^3H]-thymidine (1 μCi/well) (PerkinElmer, Boston, Mass.) in PBS was then added to the B cell cultures for an additional 12 hrs before the incorporated radioactivity was separated by filtration with water through GF/B filters (Packard Bioscience, Meriden, Conn.) and measured by liquid scintillation counting with a TopCount (Packard Bioscience). Compounds having and IC^50 value of 10 μM or less are considered active. See Table 2 for data related to compounds of the invention.

T1 sequence (O00329 whole entry, species assumed): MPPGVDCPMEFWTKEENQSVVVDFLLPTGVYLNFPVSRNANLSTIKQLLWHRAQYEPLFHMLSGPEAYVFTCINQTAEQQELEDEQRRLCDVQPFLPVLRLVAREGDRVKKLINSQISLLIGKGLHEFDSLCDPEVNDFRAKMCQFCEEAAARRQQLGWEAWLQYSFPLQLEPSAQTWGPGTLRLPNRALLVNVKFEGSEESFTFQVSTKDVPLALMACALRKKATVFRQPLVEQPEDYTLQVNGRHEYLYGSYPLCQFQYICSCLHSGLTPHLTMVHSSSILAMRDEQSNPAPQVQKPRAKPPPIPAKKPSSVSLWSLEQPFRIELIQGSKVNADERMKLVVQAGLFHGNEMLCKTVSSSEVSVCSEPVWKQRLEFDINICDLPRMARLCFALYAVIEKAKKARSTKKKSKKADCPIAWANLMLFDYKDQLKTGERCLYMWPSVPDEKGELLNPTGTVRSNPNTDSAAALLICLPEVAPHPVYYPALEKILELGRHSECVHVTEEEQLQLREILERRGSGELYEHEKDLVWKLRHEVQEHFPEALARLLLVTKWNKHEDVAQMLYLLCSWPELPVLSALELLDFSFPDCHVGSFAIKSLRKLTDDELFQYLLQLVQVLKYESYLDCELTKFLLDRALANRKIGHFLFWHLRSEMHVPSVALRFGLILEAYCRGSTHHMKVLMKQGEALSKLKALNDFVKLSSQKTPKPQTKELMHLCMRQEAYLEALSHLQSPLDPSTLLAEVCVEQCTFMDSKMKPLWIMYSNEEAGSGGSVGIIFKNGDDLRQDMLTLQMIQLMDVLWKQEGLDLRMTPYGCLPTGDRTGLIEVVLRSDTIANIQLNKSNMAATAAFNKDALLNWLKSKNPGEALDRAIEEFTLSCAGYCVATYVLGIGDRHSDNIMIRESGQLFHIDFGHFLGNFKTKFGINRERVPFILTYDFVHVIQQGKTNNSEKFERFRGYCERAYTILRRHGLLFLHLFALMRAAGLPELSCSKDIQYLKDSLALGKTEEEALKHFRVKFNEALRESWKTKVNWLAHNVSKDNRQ
T1 sequence (P27986 whole entry partner, species assumed): as the sequence (P27986 whole entry partner, species assumed, canonical isoform) above

Row | SMILES | IC50 [1] [nM] | IC50 [2] [nM] | IC50 ([3]; Homo sapiens, Pfeiffer) [nM] | IC50 [4] [nM] | IC50 [5] [nM] | IC50 [6] [nM] | IC50 ([3]; trifluoroacetic acid salt) [nM]
1 | Cc1csc2nc(C(C)Nc3nc(N)nc4[nH]cnc34)c(-c3cc(F)cc(F)c3)c(=O)n12 (single isomer, unassigned) [Example 23, 7-{1-[(2-amino-9H-purin-6-yl)amino]ethyl}-6-(3,5-difluorophenyl)-3-methyl-5H-[1,3]thiazolo[3,2-a]pyrimidin-5-one] | < 50 | > 500 | < 50 |  |  |  | 
2 | Cc1csc2nc([C@H](C)Nc3ncnc4[nH]cnc34)c(-c3cccc(F)c3)c(=O)n12 [Example 15, (S)-7-(1-(9H-purin-6-ylamino)ethyl)-6-(3-fluorophenyl)-3-methyl-5H-thiazolo[3,2-a]pyrimidin-5-one] |  | > 500 |  | > 500 |  |  | 
3 | Cc1csc2nc(C(C)Nc3ncnc4[nH]cnc34)c(-c3cc(F)cc(F)c3)c(=O)n12 (stereo not shown) [Example 12, 6-(3,5-difluorophenyl)-3-methyl-7-[1-(9H-purin-6-ylamino)ethyl]-5H-[1,3]thiazolo[3,2-a]pyrimidin-5-one] | < 50 |  |  |  | < 50 | < 50 | 
4 | Cc1csc2nc(C(C)Nc3ncnc4[nH]cnc34)c(-c3cccc(F)c3)c(=O)n12 (stereo not shown) [Example 10, 6-(3-fluorophenyl)-3-methyl-7-[1-(9H-purin-6-ylamino)ethyl]-5H-[1,3]thiazolo[3,2-a]pyrimidin-5-one] |  | > 500 |  | > 500 |  |  | 
5 | Cc1cccc2nc(C(C)Nc3ncnc4[nH]cnc34)c(-c3cccc(F)c3)c(=O)n12 (single isomer, unassigned) [Example 71, 3-(3-Fluorophenyl)-6-methyl-2-[1-(9H-purin-6-ylamino)ethyl]-4H-pyrido[1,2-a]pyrimidin-4-one trifluoroacetic acid salt] | < 50 | > 500 |  |  |  |  | < 50
